Among the test systems are RPMI-8226 leukemia; M14 melanoma; K-562 leukemia; SW-620 colon; HL-60(TB) leukemia; NCI-H23 lung; SK-MEL-28 melanoma; OVCAR-3 ovarian; NCI-H522 lung; NCI/ADR-RES ovarian.
Assay in all cases: NCI tumour cell line growth inhibition, 48 h

The structures appear in SMILES notation.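 Five compound concentrations were applied to cells in 96-well plates for 48 hours; endpoints were derived by simple linear interpolation of the resulting dose-response curve. The concentration for full growth arrest is given as TGI.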

On to `CCOC(=O)CC1COc2ccc3c(c21)OCO3` (configuration not stated), for which the TGI in the test with RPMI-8226 leukemia, with M14 melanoma, with K-562 leukemia, in the test on SW-620 colon, with HL-60(TB) leukemia and in the test on NCI-H23 lung was more than 100 µM in each case. In addition, the TGI in the test with SK-MEL-28 melanoma and in the test on OVCAR-3 ovarian was more than 100 µM throughout.

`CCOC(=O)C1SC(=Nc2ccc(OC)c(OC)c2)N=C1C` (configuration not stated): the TGI in the test with M14 melanoma was more than 100 µM; with K-562 leukemia, more than 100 µM; in the test with SW-620 colon, more than 100 µM; in the test with HL-60(TB) leukemia, 49.1 µM; in the test on NCI-H23 lung, more than 100 µM; in the test with NCI-H522 lung it was 32.3 µM. Further, the TGI in the test on SK-MEL-28 melanoma is more than 100 µM; with OVCAR-3 ovarian it was 86.7 µM.

On to `CC(C)C(=O)N1Cc2cc(Cl)cc(Cl)c2OC(=O)c2ccccc21`, for which the TGI with RPMI-8226 leukemia was 96.8 µM; in the test on M14 melanoma, 61.7 µM; in the test on K-562 leukemia, more than 100 µM; with SW-620 colon it was 94.9 µM; in the test on HL-60(TB) leukemia, 57.6 µM; in the test on NCI-H23 lung, more than 100 µM. Moreover, the TGI was 40.9 µM in the test with NCI-H522 lung, more than 100 µM in the test with SK-MEL-28 melanoma and 60.8 µM in the test with OVCAR-3 ovarian.

For the compound `Clc1cc2nn(C3CCCCO3)nc2cc1Cl` (configuration not stated), the TGI in the test on M14 melanoma, in the test with K-562 leukemia, in the test with NCI-H23 lung, in the test on NCI-H522 lung, with NCI/ADR-RES ovarian and in the test with OVCAR-3 ovarian was more than 100 µM throughout.

Regarding `O=P1(c2ccccc2)c2ccccc2-c2ccccc21`, the TGI in the test on RPMI-8226 leukemia, in the test with K-562 leukemia, in the test on SW-620 colon, in the test on HL-60(TB) leukemia, in the test on NCI-H23 lung and with NCI-H522 lung was more than 100 µM throughout. Moreover, the TGI in the test on SK-MEL-28 melanoma and with OVCAR-3 ovarian was more than 100 µM throughout.

In the case of `O=C(/C=C\c1cccc2ccccc12)c1ccc(F)cc1`, the TGI in the test with M14 melanoma came out at 29.9 µM; in the test on K-562 leukemia it was 33.2 µM; in the test on SW-620 colon it was 20.4 µM; with HL-60(TB) leukemia it was 53 µM; with NCI-H23 lung, 45.1 µM; with NCI-H522 lung, 40.2 µM. The TGI with SK-MEL-28 melanoma was found to be 26.4 µM; in the test with OVCAR-3 ovarian, 30.9 µM.

For `O=C1CSC(c2c[nH]c3ccccc23)N1c1ccc(Cl)cc1` (configuration not stated), the TGI in the test with RPMI-8226 leukemia, with M14 melanoma, in the test with K-562 leukemia, in the test on SW-620 colon, in the test on HL-60(TB) leukemia and in the test on NCI-H23 lung was more than 100 µM throughout. For the same compound, the TGI with NCI/ADR-RES ovarian, with SK-MEL-28 melanoma and with OVCAR-3 ovarian was more than 100 µM each time.

On to `CC(=O)OCC1OC(n2ccc(=O)[nH]c2=O)C(OC(C)=O)C(OC(C)=O)C1OC(C)=O` (configuration not stated), for which the TGI in the test with RPMI-8226 leukemia, in the test on M14 melanoma, in the test with K-562 leukemia, in the test on SW-620 colon, with NCI-H23 lung and in the test with NCI-H522 lung was more than 100 µM each time. In addition, the TGI with SK-MEL-28 melanoma and with OVCAR-3 ovarian was more than 100 µM throughout.

With `COc1ccc(C2=NN(c3ccccc3)C[N+](c3ccc(C)cc3)=N2)cc1`, the TGI in the test with RPMI-8226 leukemia was 67.4 µM; in the test on K-562 leukemia, 53.9 µM; in the test on SW-620 colon, 64.4 µM; in the test on HL-60(TB) leukemia it was more than 100 µM; in the test on NCI-H23 lung it was more than 100 µM; with NCI-H522 lung it was 26.5 µM. Further, the TGI is more than 100 µM in the test on SK-MEL-28 melanoma and 47.2 µM in the test with OVCAR-3 ovarian.

Turning to `COC(=O)C1CCC(=O)N1C(c1cc(OC)c(OC)c(OC)c1)c1cc(OC)c(OC)c(OC)c1` (configuration not stated), the TGI in the test with RPMI-8226 leukemia, in the test with M14 melanoma, in the test on K-562 leukemia, in the test with SW-620 colon, in the test on HL-60(TB) leukemia and with NCI-H522 lung was more than 100 µM each time. Besides, the TGI in the test on SK-MEL-28 melanoma and with OVCAR-3 ovarian was more than 100 µM in each case.

Take `COc1ccc(/C(C)=N/NC(=O)c2ccncc2)c(OC)c1`: the TGI with RPMI-8226 leukemia, with M14 melanoma, in the test with K-562 leukemia, in the test on SW-620 colon, with HL-60(TB) leukemia and in the test with NCI-H23 lung was more than 10 µM throughout. The TGI in the test on NCI/ADR-RES ovarian and with SK-MEL-28 melanoma was more than 10 µM throughout.

Turning to `O=C(Nc1ccc(Cl)cc1C(F)(F)F)C(=O)C1CCCS1(=O)=O` (configuration not stated), the TGI with RPMI-8226 leukemia was more than 100 µM; in the test on M14 melanoma it was more than 100 µM; in the test with K-562 leukemia it was more than 100 µM; in the test on SW-620 colon it was more than 10 µM; in the test on HL-60(TB) leukemia it was more than 100 µM; in the test on NCI-H23 lung, more than 100 µM. The TGI with SK-MEL-28 melanoma and in the test with OVCAR-3 ovarian was more than 100 µM throughout.

In the case of `CCC(C)C(N)C(=O)NC(CC(N)=O)C(=O)NC(CC(C)C)C(=O)NC(CCCCN)C(=O)NC(C)C(=O)NC(CC(C)C)C(=O)NC(C)C(=O)NC(C)C(=O)NC(CC(C)C)C(=O)NC(C)C(=O)NC(CCCCN)C(=O)NC(CCCCN)C(=O)NC(C(=O)NC(CC(C)C)C(N)=O)C(C)CC` (configuration not stated), the TGI in the test on M14 melanoma was 8.64 µM; in the test with K-562 leukemia, 36.3 µM; in the test on SW-620 colon it was 37.4 µM; in the test with HL-60(TB) leukemia it was 7.23 µM; with NCI-H23 lung, 29 µM; in the test with NCI-H522 lung it was 33.3 µM. For the same compound, the TGI with SK-MEL-28 melanoma is 22 µM; in the test on OVCAR-3 ovarian, 22.6 µM.

On to `O=C(O)/C(Cl)=C(\Cl)C(=O)c1ccccc1`, for which the TGI in the test on M14 melanoma, with K-562 leukemia, in the test with SW-620 colon, in the test on HL-60(TB) leukemia, in the test on NCI-H23 lung and with NCI-H522 lung was more than 100 µM in each case. Moreover, the TGI with SK-MEL-28 melanoma and in the test with OVCAR-3 ovarian was more than 100 µM in each case.

With `CCOP(=O)(OCC)/C(C#N)=C/c1cccn1C(C)C`, the TGI in the test on M14 melanoma, in the test with K-562 leukemia, with SW-620 colon, in the test on NCI-H23 lung, in the test with NCI-H522 lung and in the test with NCI/ADR-RES ovarian was more than 100 µM throughout. The TGI with SK-MEL-28 melanoma and in the test on OVCAR-3 ovarian was more than 100 µM in each case.

Turning to `CC(=O)OC(CC1(C)C(C)CCC23COC(=O)C2=CCCC31)c1ccoc1` (configuration not stated), the TGI with M14 melanoma is 33.9 µM; with K-562 leukemia, more than 100 µM; in the test on SW-620 colon, 66.8 µM; in the test with NCI-H23 lung, 54.5 µM; in the test on NCI-H522 lung it was 35.6 µM; with SK-MEL-28 melanoma, 33 µM. In the test on OVCAR-3 ovarian, the TGI was found to be 46.1 µM.

The values are drawn from PubChem BioAssay (NCI).
